Assay results published in patent US9593121B2, “Indole substituted pyrrolopyrimidinyl inhibitors of Uba6” (Millennium Pharmaceuticals, Inc., priority 2012, dated 2017).
pIC50: −log10 of the molar value. Structures can show the parent of a compound that is named as a salt.

Biological target: recombinant human his-UBA6 enzyme (Homo sapiens (Human), UniProt A0AVT1)
Experiment: UBA6 AlphaScreen Assay
Type: biochemical
Settings: for inhibition at 0.123 µM: compound at 0.123 μM
Experimental: UBA6 AlphaScreen® Assay. The UBA6 enzmatic reaction totals 20 μL and contains 50 mM HEPES (pH 7.5), 0.05% BSA, 0.02% Tween 20, 0.1 mM TCEP, 5 mM MgCl2, 2 μM ATP, 60 nM Flag-Ubiquitin, 20 nM Biotin-his-Use1, and 0.15 nM recombinant human his-UBA6 enzyme. The enzymatic reaction mixture, with and without compound inhibitor, is incubated at 24° C. for 90 minutes in a 384 well plate before termination with 10 μL of Stop/Detection buffer (50 mM HEPES (pH 7.5), 0.05% BSA, 0.02% Tween 20, 0.1 mM TCEP, 20 mM EDTA, 30 μg/ml anti-FLAG Acceptor beads (Perkin Elmer), and 6 μg/mL streptavidin donor beads (Perkin Elmer). After incubation for 2 hours at 24° C. in a dark room, quantification of the AlphaScreen signal is performed on the Pherastar™ (BMG).

Chain of recombinant human his-UBA6 enzyme (A0AVT1 whole entry): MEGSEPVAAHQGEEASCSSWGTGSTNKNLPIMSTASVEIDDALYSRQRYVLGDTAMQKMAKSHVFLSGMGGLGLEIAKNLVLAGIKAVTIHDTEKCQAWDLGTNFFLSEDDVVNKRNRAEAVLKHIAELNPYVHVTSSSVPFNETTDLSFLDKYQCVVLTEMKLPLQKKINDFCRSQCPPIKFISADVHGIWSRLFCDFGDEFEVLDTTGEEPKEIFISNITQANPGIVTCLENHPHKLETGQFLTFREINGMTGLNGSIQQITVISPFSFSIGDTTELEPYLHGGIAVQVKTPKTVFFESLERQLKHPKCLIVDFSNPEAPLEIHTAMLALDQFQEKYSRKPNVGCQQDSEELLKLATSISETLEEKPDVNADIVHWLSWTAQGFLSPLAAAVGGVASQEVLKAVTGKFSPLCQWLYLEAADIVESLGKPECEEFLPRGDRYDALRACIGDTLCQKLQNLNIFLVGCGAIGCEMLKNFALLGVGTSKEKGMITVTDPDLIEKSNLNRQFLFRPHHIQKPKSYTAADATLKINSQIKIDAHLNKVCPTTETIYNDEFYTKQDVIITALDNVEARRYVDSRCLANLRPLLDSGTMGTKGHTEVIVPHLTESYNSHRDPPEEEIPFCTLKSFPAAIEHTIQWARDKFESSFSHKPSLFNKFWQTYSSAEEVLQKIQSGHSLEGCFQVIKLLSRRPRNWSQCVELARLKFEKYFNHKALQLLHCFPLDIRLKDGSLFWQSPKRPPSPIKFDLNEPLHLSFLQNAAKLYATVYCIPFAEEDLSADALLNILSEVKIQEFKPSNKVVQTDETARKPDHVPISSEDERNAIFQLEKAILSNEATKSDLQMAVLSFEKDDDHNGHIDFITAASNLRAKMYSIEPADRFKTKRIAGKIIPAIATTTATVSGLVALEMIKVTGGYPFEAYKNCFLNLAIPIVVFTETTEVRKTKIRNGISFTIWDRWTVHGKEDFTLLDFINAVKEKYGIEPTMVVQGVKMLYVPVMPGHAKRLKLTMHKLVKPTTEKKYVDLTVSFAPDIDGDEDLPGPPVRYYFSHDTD

| Structure (SMILES) | pIC50 | inhibition at 0.123 µM [%] | inhibition at 1.11 µM (compound at 1.11 μM (footnote ‡)) [%] |
| --- | --- | --- | --- |
| NS(=O)(=O)OC[C@@H]1C[C@@H](n2ccc3c(-c4cc5cc(F)c(Cl)cc5[nH]4)ncnc32)C[C@@H]1O [Compound I-09, {(1S,2S,4R)-4-[4-(6-chloro-5-fluoro-1H-indol-2-yl)-7H-pyrrolo[2,3-d]pyrimidin-7-yl]-2-hydroxycyclopentyl}methyl sulfamate] | 5.70 to 7.30 | 49 |  |
| NS(=O)(=O)OC[C@@H]1C[C@@H](n2ccc3c(-c4cc5ccccc5[nH]4)ncnc32)C[C@@H]1O [Compound I-01, ((1S,2S,4R)-4-(4-(1H-indol-2-yl)-7H-pyrrolo[2,3-d]pyrimidin-7-yl)-2-hydroxycyclopentyl)methyl sulfamate HCl] | ≥ 7.30 | 87 |  |
| N#Cc1ccc2cc(-c3ncnc4c3ccn4[C@@H]3C[C@@H](COS(N)(=O)=O)[C@@H](O)C3)[nH]c2c1 [Compound I-05, {(1S,2S,4R)-4-[4-(6-cyano-1H-indol-2-yl)-7H-pyrrolo[2,3-d]pyrimidin-7-yl]-2-hydroxycyclopentyl}methyl sulfamate] | ≥ 7.30 | 86 |  |
| NS(=O)(=O)OC[C@@H]1C[C@@H](n2ccc3c(-c4cc5cc(F)ccc5[nH]4)ncnc32)C[C@@H]1O [Compound I-11, {(1S,2S,4R)-4-[4-(5-fluoro-1H-indol-2-yl)-7H-pyrrolo[2,3-d]pyrimidin-7-yl]-2-hydroxycyclopentyl}methyl sulfamate] | 5.70 to 7.30 | 61 |  |
| Cc1ccc2cc(-c3ncnc4c3ccn4[C@@H]3C[C@@H](COS(N)(=O)=O)[C@@H](O)C3)[nH]c2c1 [Compound I-06, {(1S,2S,4R)-2-hydroxy-4-[4-(6-methyl-1H-indol-2-yl)-7H-pyrrolo[2,3-d]pyrimidin-7-yl]cyclopentyl}methyl sulfamate] | ≥ 7.30 | 88 |  |
| Cn1c(-c2ncnc3c2ccn3[C@@H]2C[C@@H](COS(N)(=O)=O)[C@@H](O)C2)cc2ccccc21 [Compound I-02, {(1S,2S,4R)-2-hydroxy-4-[4-(1-methyl-1H-indol-2-yl)-7H-pyrrolo[2,3-d]pyrimidin-7-yl]cyclopentyl}methyl sulfamate HCl] | 5.70 to 7.30 | 5.9 |  |
| Cc1c(-c2ncnc3c2ccn3[C@@H]2C[C@@H](COS(N)(=O)=O)[C@@H](O)C2)[nH]c2ccccc12 [Compound I-13, {(1S,2S,4R)-2-hydroxy-4-[4-(3-methyl-1H-indol-2-yl)-7H-pyrrolo[2,3-d]pyrimidin-7-yl]cyclopentyl}methyl sulfamate] | 5.70 to 7.30 | 16 |  |
| COc1ccc2cc(-c3ncnc4c3ccn4[C@@H]3C[C@@H](COS(N)(=O)=O)[C@@H](O)C3)n(C(=O)OC(C)(C)C)c2c1 [Compound I-10, tert-butyl 2-(7-{(1R,3S,4S)-3-hydroxy-4-[(sulfamoyloxy)methyl]cyclopentyl}-7H-pyrrolo[2,3-d]pyrimidin-4-yl)-6-methoxy-1H-indole-1-carboxylate] | 5.70 to 7.30 |  | 26 |
| COc1ccc2[nH]c(-c3ncnc4c3ccn4[C@@H]3C[C@@H](COS(N)(=O)=O)[C@@H](O)C3)cc2c1 [Compound I-03, {(1S,2S,4R)-2-hydroxy-4-[4-(5-methoxy-1H-indol-2-yl)-7H-pyrrolo[2,3-d]pyrimidin-7-yl]cyclopentyl}methyl sulfamate] | ≥ 7.30 | 93 |  |
| COc1cccc2cc(-c3ncnc4c3ccn4[C@@H]3C[C@@H](COS(N)(=O)=O)[C@@H](O)C3)[nH]c12 [Compound I-12, {(1S,2S,4R)-2-hydroxy-4-[4-(7-methoxy-1H-indol-2-yl)-7H-pyrrolo[2,3-d]pyrimidin-7-yl]cyclopentyl}methyl sulfamate] | 5.70 to 7.30 | 12 |  |
| Cc1nc(-c2cc3ccccc3[nH]2)c2ccn([C@@H]3C[C@@H](COS(N)(=O)=O)[C@@H](O)C3)c2n1 [Compound I-08, {(1S,2S,4R)-2-hydroxy-4-[4-(1H-indol-2-yl)-2-methyl-7H-pyrrolo[2,3-d]pyrimidin-7-yl]cyclopentyl}methyl sulfamate HCl] | ≥ 7.30 | 74 |  |
| NS(=O)(=O)OC[C@@H]1C[C@@H](n2ccc3c(-c4cc5ccc(Cl)cc5[nH]4)ncnc32)C[C@@H]1O [Compound I-04, {(1S,2S,4R)-4-[4-(6-chloro-1H-indol-2-yl)-7H-pyrrolo[2,3-d]pyrimidin-7-yl]-2-hydroxycyclopentyl}methyl sulfamate] | ≥ 7.30 | 91 |  |
| COc1ccc2cc(-c3ncnc4c3ccn4[C@@H]3C[C@@H](COS(N)(=O)=O)[C@@H](O)C3)[nH]c2c1 [Compound I-07, {(1S,2S,4R)-2-hydroxy-4-[4-(6-methoxy-1H-indol-2-yl)-7H-pyrrolo[2,3-d]pyrimidin-7-yl]cyclopentyl}methyl sulfamate] | ≥ 7.30 | 90 |  |
| NS(=O)(=O)OC[C@@H]1C[C@@H](n2ccc3c(-c4cc5ccc(C(F)(F)F)cc5[nH]4)ncnc32)C[C@@H]1O [Compound I-14, [(1S,2S,4R)-2-hydroxy-4-{4-[6-(trifluoromethyl)-1H-indol-2-yl]-7H-pyrrolo[2,3-d]pyrimidin-7-yl}cyclopentyl]methyl sulfamate] | 5.70 to 7.30 | 32 |  |
